Assay results: patent US20230226218A1, “Red Cell Extracellular Vesicles (RCEVs) Containing Cargoes and Methods of Use and Production Thereof” (ERYTECH PHARMA, priority 2020, published 2023)

Legend:
Assay type in all cases: cell-based, human
THP1 macrophages = test: Cytokine release by THP1 macrophages (BioLegend bead kit, flow cytometry)
Experimental: In a second approach, the levels of IL-1b, IL-6, TNF-α, and IFN-β were measured after THP1 macrophages were incubated with varying concentrations of STINGa, STINGa-CLRCEVs, or proRBC EVs.
[…] Supernatants were collected at 6 h and 24 h after stimulation and frozen until quantification. Supernatants were analyzed by flow cytometry using the BioLegend kit with four (4) different beads recognizing IL-1b, IL-6, TNF-α, IFN-β.
It has been reported that vesicles from packed red blood cell (pRBC) units bind to monocytes and induce proinflammatory cytokines, boosting T-cell responses in vitro (Danesh et al 2013). To test whether CLRCEVs and/or RCEVs would likewise induce these cytokines, THP1 macrophages were grown and treated as before and the levels of IL-6, IL-1b, and TNF-α were measured.

STING = test: THP1-Dual IRF-Lucia luciferase reporter assay (QUANTI-Luc); details: 0.5, 1.0, 1.5, 2.0 μg/mL STINGa; 100k cells/well; 24 h
Experimental: First, indirect measurements were made using the THP1-Dual™ cells (InvivoGen), which are derived from the human THP-1 monocyte cell line and contain a stably integrated inducible IRF-Lucia luciferase reporter construct that expresses luciferase when STING is activated (e.g. by STING agonists including CDN).
Briefly, 100k cells/well were seeded and then treated with different concentrations of free STING agonist (“STINGa”) (0.5, 1.0, 1.5, and 2.0 μg/mL), EVs-STINGa (also referred to as “ERY-STINGa-CLRCEV” or “STINGa-CLRCEV” throughout) (0.5, 1.0, 1.5, and 2.0 μg/mL, carried by the indicated amounts of EVs), and EVs-proRBC. After 24 h, the supernatants were recovered and subjected to QUANTI-Luc™ detection according to the manufacturer's instructions. […] If so, it is envisioned that the in vivo efficacy of EV-STINGa (or any EV-[immune modulator] for that matter) will depend upon the capacity of target cells for taking up the CLRCEVs. It is further envisioned that if the THP1-Dual monocytes had been differentiated into macrophages, the highest dose of EVs-STINGa would have elicited at least as much luciferase activity as the highest dose of free STINGa.

THP1-derived macrophages = test: pHrodo in vitro phagocytosis assay, THP1-derived macrophages; details: 25k EVs/cell, STINGa 0.14 μg/ml, 48 h, FIG. 18-19
Excerpt: To test the ability of the RCEVs and CLRCEVs to be taken up by immune cells, we developed an in vitro phagocytosis protocol based upon the THP1 monocyte cell line. Briefly, we determined THP1 cells could be effectively differentiated to become more macrophage-like by treating them with PMA for 3 days followed by 4 days of resting in culture media without PMA. Thereafter, we applied various test substances (e.g. EVs-STINGa, EVs-proRBC, free STINGa, each+/=a reporter dye) to either the undifferentiated or differentiated THP1 cells and observed the phagocytosis activity.
As shown schematically in FIG. 12, pHrodo®-labeled cells or vesicles (e.g. EVs) are added to phagocytic cells, but while they are outside of the cells, there is little to no fluorescence at the approximately pH 7.4 extracellular environment. When the relevant cellular receptors are engaged, a phagocytic cup forms around the labeled cells or vesicles. Finally, an acidic phagosome forms, causing the pHrodo® to emit fluorescence.
As an initial study, the THP1 cells were seeded as follows: 24,000, 34,000, and 44,000 cells/well. […] Labeled EVs-STINGa were added to differentiated THP1 cells and incubated for 12 h and the […] device was set to read the wells every 30 minutes. […] In these greyscale micrograms, the original red fluorescence appears black inside the cells. […]

`Nc1ncnc2c1ncn2[C@@H]1O[C@@H]2COP(=O)([S-])O[C@@H]3[C@H](O)[C@@H](COP([O-])(=S)O[C@H]2[C@H]1O)O[C@H]3n1cnc2c(N)ncnc21.[Na+].[Na+]` (stereo partly drawn) [free STINGa, ADU-S100] gave an IFN-β (THP1 macrophages; 3 μg/ml STINGa (EVs 7.6E10 EVs/mL), time not stated) of 140 pg/mL, an IFN-β (THP1 macrophages; 8 μg/mL STINGa (EVs 2.0E11 EVs/mL), 6 h) of 400 pg/mL and an IFN-β (THP1 macrophages; 8 μg/mL STINGa (EVs 2.0E11 EVs/mL), 24 h) of 318 pg/mL. For the same molecule, the IL-6 (THP1 macrophages; 2.5E+10 EVs/mL, STINGa 1 μg/ml) was 25 pg/mL, the IL-6 (THP1 macrophages; 5.0E10 EVs/mL, STINGa 2 μg/ml) was 38 pg/mL and the “IL-1b release” value (THP1 macrophages; 8, 2 or 1 μg/mL, 6 h and 24 h) was “did not induce the release of IL-1b”. The IL-6 (THP1 macrophages; 24 h, 2.0E11 EVs/mL, STINGa 8 μg/ml) was 453 pg/mL, the “luciferase activity (IRF pathway activation)” value (STING) was “a clear dose response effect was observed” and the “red fluorescence (uptake)” value (THP1-derived macrophages) was “neither free STINGa+pHrodo nor pHrodo alone produced appreciable fluorescence”.
